Patent publication US7071162B1, “Combined use of cementum attachment protein and cyclosporin a for improved attachment of dental and orthopedic implants” (priority 1997, dated 2006)

Assays:
[1] = test system: periodontal cells; conditions: CAP-coated surfaces; Pitaru et al. 1995; cited from earlier work
[2] = test system: periodontal ligament cells; test: Attachment and spread of periodontal ligament cells; format: cell-based; conditions: for attachment and spread of cells from the periodontal ligament: compared with gingival fibroblasts
Excerpt: Cementum attachment protein (CAP) is a protein of molecular mass approximately 56 kDa present in cementum and specifically expressed by mineralized tissue-forming cells of the periodontium. […] The protein has sequences containing Gly-X-Y repeats typical of a collagen helix. SEQ ID NOS 1-5 are fragments of CAP. One 17-amino-acid peptide, SEQ ID NO 2, has 82% homology with a type XII collagen domain. […] Although another 19-amino-acid-long peptide (SEQ ID NO 3) has 95% homology to bovine al (I) collagen, two other peptides, SEQ ID NOS 4 and 5, are only 79% and 68% homologous.

| Substance | migration and attachment of periodontal cells versus gingival fibroblasts [1] | capacity to promote attachment of periodontal cells after bacterial collagenase ([2]; bacterial collagenase digestion) | capacity to promote attachment of periodontal cells after chondroitinase ABC digestion ([2]; chondroitinase ABC digestion) | attachment and spread of cells from the periodontal ligament [2] |
| --- | --- | --- | --- | --- |
| Cementum attachment protein [CAP] | migrate in response to and attach better to CAP-coated surfaces than do gingival fibroblasts | eliminate the capacity of CAP to promote attachment of periodontal cells | had no effect | more efficiently than that of gingival fibroblasts |
| type XIl collagen: collagen type with a domain 82% homologous to SEQ ID NO 2 of CAP [reference compound] | – | – | – | does not promote the attachment of periodontal ligament cells |
